Data as given in the NIST ThermoML archive (doi:10.1016/j.jct.2006.05.008).
± gives the expanded uncertainty stated by the source.

Test: molar heat capacity at constant pressure
Conditions: 101.33 kPa, Small (less than 1 g) adiabatic calorimetry

CCCCn1cc[n+](C)c1.[Br-] [1-butyl-3-methylimidazolium bromide]
Conditions	molar heat capacity at constant pressure [J/K/mol]
122.75 K, Glass	139.07 ± 0.76
123.63 K, Crystal	131.11 ± 0.73
124.78 K, Glass	140.32 ± 0.76
125.66 K, Crystal	132.08 ± 0.73
126.82 K, Glass	141.79 ± 0.77
127.7 K, Crystal	133.1 ± 0.73
128.85 K, Glass	143.22 ± 0.77
129.73 K, Crystal	134.32 ± 0.74
130 K, Crystal	134.3 ± 0.75
130.89 K, Glass	144.53 ± 0.78
131.77 K, Crystal	135.36 ± 0.74
132.93 K, Glass	145.61 ± 0.78
133.82 K, Crystal	136.37 ± 0.75
134.98 K, Glass	147.16 ± 0.79
135.86 K, Crystal	137.63 ± 0.75
137.02 K, Glass	148.47 ± 0.79
137.9 K, Crystal	138.69 ± 0.75
139.07 K, Glass	149.68 ± 0.8
139.95 K, Crystal	139.77 ± 0.76
140 K, Crystal	139.7 ± 0.75
141.11 K, Glass	150.96 ± 0.8
142 K, Crystal	140.95 ± 0.76
143.16 K, Glass	152.33 ± 0.81
144.05 K, Crystal	142.17 ± 0.77
145.21 K, Glass	153.64 ± 0.82
146.11 K, Crystal	143.29 ± 0.77
147.27 K, Glass	154.99 ± 0.82
148.17 K, Crystal	144.04 ± 0.78
149.33 K, Glass	156.22 ± 0.82
150 K, Crystal	145.1 ± 0.75
150.23 K, Crystal	145.16 ± 0.78
151.38 K, Glass	157.56 ± 0.83
152.28 K, Crystal	146.48 ± 0.79
153.44 K, Glass	158.85 ± 0.83
154.34 K, Crystal	147.77 ± 0.79
155.5 K, Glass	160.15 ± 0.84
156.4 K, Crystal	148.83 ± 0.8
157.55 K, Glass	161.46 ± 0.85
158.47 K, Crystal	149.86 ± 0.8
159.61 K, Glass	162.88 ± 0.85
160 K, Crystal	150.5 ± 0.83
160.53 K, Crystal	151.03 ± 0.8
161.68 K, Glass	164.21 ± 0.86
162.59 K, Crystal	152.18 ± 0.81
163.74 K, Glass	165.38 ± 0.86
164.66 K, Crystal	153.33 ± 0.81
165.8 K, Glass	166.7 ± 0.87
166.73 K, Crystal	154.42 ± 0.82
167.87 K, Glass	168.08 ± 0.87
168.79 K, Crystal	155.67 ± 0.82
169.93 K, Glass	169.45 ± 0.88
170 K, Crystal	156 ± 0.83
170.86 K, Crystal	156.71 ± 0.83
172 K, Glass	170.75 ± 0.88
172.93 K, Crystal	157.83 ± 0.83
174.07 K, Glass	172.09 ± 0.89
175 K, Crystal	159 ± 0.84
176.14 K, Glass	173.39 ± 0.89
177.07 K, Crystal	160.17 ± 0.84
178.21 K, Glass	174.81 ± 0.9
179.15 K, Crystal	161.41 ± 0.85
180 K, Crystal	161.6 ± 0.83
180.29 K, Glass	176.19 ± 0.9
181.23 K, Crystal	162.53 ± 0.85
182.37 K, Glass	177.61 ± 0.91
183.3 K, Crystal	163.73 ± 0.85
184.44 K, Glass	178.88 ± 0.92
185.38 K, Crystal	164.89 ± 0.86
186.51 K, Glass	180.34 ± 0.92
187.45 K, Crystal	166.26 ± 0.87
188.59 K, Glass	181.72 ± 0.93
189.53 K, Crystal	167.35 ± 0.87
190 K, Crystal	167.4 ± 0.83
190.66 K, Glass	183.15 ± 0.93
191.61 K, Crystal	168.45 ± 0.87
192.74 K, Glass	184.62 ± 0.94
193.69 K, Crystal	169.62 ± 0.88
194.82 K, Glass	186.01 ± 0.94
195.77 K, Crystal	170.97 ± 0.88
196.9 K, Glass	187.63 ± 0.95
197.85 K, Crystal	172.33 ± 0.89
198.98 K, Glass	189.28 ± 0.96
199.93 K, Crystal	173.55 ± 0.89
200 K, Crystal	173.4 ± 0.92
201.07 K, Glass	191 ± 0.96
202.01 K, Crystal	174.87 ± 0.9
203.15 K, Glass	192.74 ± 0.97
204.09 K, Crystal	176.17 ± 0.9
205.24 K, Glass	194.6 ± 0.98
206.18 K, Crystal	177.52 ± 0.91
207.34 K, Glass	196.57 ± 0.99
208.26 K, Crystal	178.87 ± 0.92
209.44 K, Glass	199.14 ± 1
210 K, Crystal	179.9 ± 0.92
210.34 K, Crystal	180.27 ± 0.92
211.54 K, Glass	201.34 ± 1
212.44 K, Crystal	181.75 ± 0.93
213.66 K, Glass	205.71 ± 1
214.52 K, Crystal	183.24 ± 0.93
215.75 K, Glass	211.67 ± 1
216.61 K, Crystal	184.62 ± 0.94
217.78 K, Glass	223.22 ± 1.1
218.7 K, Crystal	186.06 ± 0.94
219.71 K, Glass	249.71 ± 1.2
220 K, Crystal	186.6 ± 0.92
220.79 K, Crystal	187.32 ± 0.95
222.88 K, Crystal	188.66 ± 0.96
224.97 K, Crystal	190.05 ± 0.96
225.62 K, Liquid	289.04 ± 1.4
227.06 K, Crystal	191.53 ± 0.97
227.7 K, Liquid	289.5 ± 1.4
229.15 K, Crystal	192.85 ± 0.97
229.79 K, Liquid	290.01 ± 1.4
230 K, Crystal	193.1 ± 1
231.24 K, Crystal	194.13 ± 0.98
231.89 K, Liquid	290.69 ± 1.4
233.34 K, Crystal	195.6 ± 0.98
233.98 K, Liquid	291.24 ± 1.4
235.43 K, Crystal	196.86 ± 0.99
236.07 K, Liquid	291.65 ± 1.4
237.53 K, Crystal	198 ± 0.99
238.17 K, Liquid	292.05 ± 1.4
239.63 K, Crystal	199.44 ± 1
240 K, Crystal	199.5 ± 1
240.26 K, Liquid	292.64 ± 1.4
241.72 K, Crystal	200.93 ± 1
242.35 K, Liquid	293.21 ± 1.4
243.82 K, Crystal	202.36 ± 1
244.44 K, Liquid	293.89 ± 1.4
245.93 K, Crystal	203.67 ± 1
246.54 K, Liquid	294.81 ± 1.4
248.03 K, Crystal	205.09 ± 1
248.64 K, Liquid	295.35 ± 1.4
250 K, Crystal	206.2 ± 1
250.12 K, Crystal	206.58 ± 1
250.73 K, Liquid	296.1 ± 1.4
252.22 K, Crystal	208.01 ± 1
252.83 K, Liquid	296.76 ± 1.4
254.32 K, Crystal	209.53 ± 1
256.43 K, Crystal	211.04 ± 1
258.53 K, Crystal	212.45 ± 1
260 K, Crystal	213.2 ± 1.1
260.63 K, Crystal	213.97 ± 1.1
262.74 K, Crystal	215.49 ± 1.1
264.84 K, Crystal	217.16 ± 1.1
266.93 K, Crystal	218.74 ± 1.1
269.03 K, Crystal	220.2 ± 1.1
270 K, Crystal	220.8 ± 1.1
271.12 K, Crystal	222.15 ± 1.1
273.22 K, Crystal	223.99 ± 1.1
275.33 K, Crystal	225.35 ± 1.1
277.43 K, Crystal	227.05 ± 1.1
279.55 K, Crystal	228.43 ± 1.1
280 K, Crystal	228.4 ± 1.1
281.65 K, Crystal	230.01 ± 1.1
283.76 K, Crystal	231.57 ± 1.1
285.86 K, Crystal	232.75 ± 1.1
287.97 K, Crystal	234.48 ± 1.1
290 K, Crystal	235.8 ± 1.2
290.08 K, Crystal	236.13 ± 1.1
292.19 K, Crystal	237.64 ± 1.2
294.31 K, Crystal	239.37 ± 1.2
296.42 K, Crystal	241.14 ± 1.2
298.15 K, Crystal	241.8 ± 1.2
298.54 K, Crystal	243.38 ± 1.2
300 K, Crystal	243.1 ± 1.2
300.66 K, Crystal	245.13 ± 1.2
302.78 K, Crystal	247.98 ± 1.2
304.91 K, Crystal	249.78 ± 1.2
308.84 K, Crystal	254.23 ± 1.2
310 K, Crystal	250.4 ± 1.2
312.32 K, Crystal	258.72 ± 1.2
314.44 K, Crystal	261.85 ± 1.2
320 K, Crystal	257.8 ± 1.2
330 K, Crystal	265.1 ± 1.2
340 K, Crystal	272.5 ± 1.3
350 K, Crystal	279.8 ± 1.3
351.35 K, Crystal	280.8 ± 1.3
351.35 K, Liquid	332.6 ± 1.5
355.98 K, Liquid	334.82 ± 1.5
359.86 K, Liquid	336.11 ± 1.5
360 K, Liquid	336.3 ± 1.6
362.1 K, Liquid	338.41 ± 1.6
364.36 K, Liquid	339.33 ± 1.6
366.64 K, Liquid	339.84 ± 1.6
370 K, Liquid	340.9 ± 1.6
